Here are results for 1 compound from patent US20240246941A1, “SUBSTITUTED 4-(3-AMINOPROP-1-YL)AMINOQUINOLINE ANALOGS AS MODULATORS OF MELANOMA-ASSOCIATED ANTIGEN 11 UBIQUITIN LIGASE” (ST. JUDE CHILDREN'S RESEARCH HOSPITAL, INC., priority 2020, published 2024).

The test system of data set [1] is HEK293FT cells stably expressing FLAG-vector or FLAG-MAGE-A11. Kind of data set: Cell viability alamarBlue assay, HEK293FT cells. It counts as cell-based. Particulars: MAGE-A11 expressing HEK293FT cells versus vector control, 24 hours, listed as SJ521054. As to the method:
(§1) Cell viability Assay. To assess cell viability after SJ521054 treatment, 1×10^4 cells/ml were treated with SJ521054 (0-40 μM) and incubated for 24 hours prior to changing the media and adding alamarBlue (Thermo Fisher Scientific) and incubating for 4 hours at 37° C. Plates were read by measuring the fluorescence with excitation wavelength at 540 nm and emission wavelength at 590 nm on an Enspire plate reader.
(In general: Resazurin is reduced to fluorescent resorufin, in cell work by metabolically active cells.)

Data set [2] has as its target MAGE-A11 binding to PCF11 in FLAG-MAGE-A11 HEK293FT cell lysates (Homo sapiens (Human), UniProt P43364). Kind of data set: anti-FLAG pull-down (co-IP) of MAGE-A11:PCF11 in cell lysates. Particulars: 100 μM, 24 hours, immunoblot for endogenous PCF11, listed as SJ521054. How it is done: Immunoprecipitation. HEK293FT cells were plated in 6 cm^2 plates and transfected 24 hours later with Effectene (QIAGEN) according to the manufacturer's protocol. After 48 hours, cells were washed and scraped in cold PBS, spun down and resuspended in lysis buffer (50 mM Tris pH 7.4, 150 mM NaCl, 1 mM DTT, 0.1% (v/v) Triton X-100, 10 mM N-Ethylmaleimide and 1× protease inhibitor cocktail (Sigma)). Cell lysates were incubated with appropriate antibodies overnight at 4° C. and then with protein A beads for 2 hours at 4° C. Beads were then washed with lysis buffer three times and eluted with 2×SDS sample buffer.
(§2) Western Blotting and Antibodies. For western blotting, samples in SDS sample buffer were resolved on SDS-PAGE gels and then transferred to nitrocellulose membranes prior to blocking in TBST with 5% (w/v) milk powder or 3% (w/v) bovine serum albumin and probing with primary and secondary antibodies (GE Healthcare). Primary antibodies were: anti-Myc (Sigma, #C3956), anti-FLAG (Sigma, #F3165), anti-HUWE1 (Novus Biologicals, #NB 100-652), anti-PCF11 (Bethyl Laboratories, #A303-706A), anti-GAPDH (Cell Signaling Technology, #2118), anti-TRIM28 (Abcam, #ab22553), anti-AMPKa1 (Cell Signaling Technology, #2795) and anti-MMS19 (Proteintech, #16015-1-AP). Protein signal was visualized after addition of ECL detection reagent (GE Healthcare) according to manufacturer's instructions.
In general terms: Immunoblotting shows a protein as a band on a membrane.

A short description of data set [3]: High throughput Caco-2 permeability. It counts as in vitro ADME. The settings on record: human, 10 μmol/l, 2 h, 37° C. As to the method:
High throughput Caco-2 permeability was performed in the TranswellR 0.4 μm polycarbonate membrane 96-well system with modified methods. Caco-2 cells were maintained at 37° C. in a humidified incubator with an atmosphere of 5% CO2. The cells were cultured in 75 cm^2 flasks with Dulbecco's Modified Eagle's Medium (DMEM) containing 10% (v/v) FBS, 1% (v/v) non-essential amino acids (NEAA), 100 units/ml of penicillin, and 100 μg/ml of streptomycin. The Caco-2 cells were seeded onto inserts at a density of 2×10^4 cells/insert separately. The medium in the wells was exchanged each other day, and the trans epithelial electrical resistance (TEER) value was measured using an epithelial voltohm meter (Millipore, Billerica, Massachusetts). […] For transport experiments, each cultured monolayer on the 96-well plate was washed twice with a transport buffer (HBSS containing 25 mM HEPES, pH 7.4). The permeability assay was initiated by the addition of each compound solution (10 μmol/l) into inserts (apical side, A) or receivers (basolateral side, B). The Caco-2 cell monolayers were incubated for 2 h at 37° C. Fractions were collected from receivers (if apical to basal permeability) or inserts (if basal to apical permeability), and concentrations were assessed by UPLC/MS (Waters; Milford, MA). All compounds were tested in triplicates. The A→B (or B→A) apparent permeability coefficients (Papp) of each compound were calculated using the equation, Papp=dQ/dt×1/AC0, where dQ/dt equals the flux of a drug across the monolayer, A equals the total insert well surface area, and C0 is the initial concentration of substrate in the donor compartment. The efflux ratio was determined by dividing the Papp in the B-A direction by the Papp in the A-B direction.

Data set [4] can be described thus: Solubility assay (μSOL Evolution, UV). The class given is physicochemical. Particulars: 18 h at RT in buffer. How it is done: Solubility assays were carried out on a Biomek FX lab automation workstation (Beckman Coulter, Inc., Fullerton, CA) using SOL Evolution software (pION Inc., Woburn, MA). The detailed method is described as follows. 10 μl of 10 mM compound stock (in DMSO) was added to 190 μl 1-propanol to make a reference stock plate. 5 μl from this reference stock plate were mixed with 70 μl 1-propanol and 75 μl citrate phosphate-buffered saline (PBS; isotonic) to make the reference plate, and the UV spectrum (250-500 nm) of the reference plate was read. 6 μl of 10 mM test compound stock was added to 594 μl buffer in a 96-well storage plate and mixed. The storage plate was sealed and incubated at RT for 18 h. The suspension was then filtered through a 96-well filter plate (pION Inc., Woburn, MA). 75 μl of filtrate was mixed with 75 μl 1-propanol to make the sample plate, and the UV spectrum of the sample plate was read. Calculations were carried out with μSOL Evolution software based on the area under the curve (AUC) of the UV spectrum of the sample and reference plates. All compounds were tested in triplicate.

For data set [5], the system named is PCF11 protein levels in HEK293FT cells. As to the kind of experiment: PCF11 degradation by MAGE-A11, immunoblotting in HEK293FT cells. It counts as cell-based. Particulars: 24 hours. How it is done:
Cell culture and stable cell lines. HEK293FT, HeLa and DAOY cells were grown in DMEM (Gibco) supplemented with 10% (v/v) FBS (Hyclone), 2 mM L-glutamine, 100 units/ml penicillin, 100 units/ml streptomycin, and […] amphotericin B (Invitrogen). HEK293FT and DAOY cells were transfected with either HA-FLAG-vector, FLAG-MAGE-A11 wild-type or SBC mutants using Effectene (QIAGEN) according to the manufacturer's protocol in 6 cm^2 plates. After 48 hours, cells were selected with 1 μg/ml puromycin (Sigma) over 2 weeks.
as §2

The subject of data set [6] is MAGE-A11-knockout DAOY cells or those reconstituted with MAGE-A11. As to the kind of experiment: Cell viability alamarBlue assay, DAOY cells. The class given is cell-based. The settings on record: MAGE-A11 expressing DAOY cells versus MAGE-A11-negative cells, 24 hours, listed as SJ521054. How it is done:
as §1

Values after ≈ are worked out from the molar mass of the structure shown. “Also recorded” adds a separate entry of the source. Like-named read-outs stand apart in the source and are kept apart here.

MAGE-A11 binding to PCF11 in FLAG-MAGE-A11 HEK293FT cell lysates, sequence (P43364 whole entry): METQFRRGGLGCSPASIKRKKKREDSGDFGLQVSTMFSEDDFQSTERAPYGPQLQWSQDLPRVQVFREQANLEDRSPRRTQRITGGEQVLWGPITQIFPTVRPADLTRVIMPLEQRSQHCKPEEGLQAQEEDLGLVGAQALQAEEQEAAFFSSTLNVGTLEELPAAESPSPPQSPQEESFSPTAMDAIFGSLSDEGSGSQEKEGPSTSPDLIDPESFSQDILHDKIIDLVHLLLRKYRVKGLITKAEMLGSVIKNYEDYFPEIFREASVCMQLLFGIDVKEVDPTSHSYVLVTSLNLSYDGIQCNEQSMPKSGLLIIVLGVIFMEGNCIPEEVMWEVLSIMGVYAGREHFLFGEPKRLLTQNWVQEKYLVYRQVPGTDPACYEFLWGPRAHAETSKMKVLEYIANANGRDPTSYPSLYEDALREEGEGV

Turning to `FC(F)(F)c1ccc2c(NCCCNCc3ccc4[nH]ccc4c3)ccnc2c1` [SJ000521054-02, N^1-((1H-Indol-5-yl)methyl)-N^3-(7-(trifluoromethyl)quinolin-4-yl)propane-1,3-diamine], the cell viability entry was “decreased the viability; also recorded: reduces viability of MAGE-A11 expressing HEK293FT cells” in data set [1] and “reduces viability of MAGE-A11 expressing DAOY cancer cells; also recorded: decreased the viability” in data set [6]. Moreover, in data set [2], the “MAGE-A11 binding to PCF11 in cell lysate (co-IP)” value is “inhibited MAGE-A11 binding to PCF11 in cell lysates”. The Papp at 2 h, 10 μmol/l in data set [3] (Caco-2, pH 7.4, apical to basolateral, read-out: Caco-2 permeability, A/B) was determined as 11.5 ×10⁻⁶ cm/s; in data set [3] (Caco-2, pH 7.4, basolateral to apical, read-out: Caco-2 permeability, B/A), 14.2 ×10⁻⁶ cm/s. Moreover, the “Solubility” value in data set [4] amounted to 26.48 µM (≈ 10.6 µg/mL). Further, the “PCF11 protein levels / PCF11 degradation by MAGE-A11” value in data set [5] (MAGE-A11 expressing HEK293FT cells, listed as SJ521054) is listed as “blocks PCF11 degradation by MAGE-A11; also recorded: stabilized PCF11 protein levels”. In addition, the PCF11 protein levels result in data set [5] (vector control HEK293FT cells) is listed as “no effect”.

The Solubility is the dissolved amount per volume that the medium holds. High values mean much dissolved substance, low ones little dissolved substance.
